# According to US20230085307A1, “PYRIDAZINONE COMPOUND AND HERBICIDE” (NISSAN CHEMICAL CORPORATION, priority 2019, published 2023):
# Experiments:
# oval-leafed pondweed = assay: Test Example 1: herbicidal activity, application before weed generation under submerged conditions (Table 16, symbol C); format: in vivo, oval-leafed pondweed (Monochoria vaginalis); settings: 320 g/ha applied herbicide
# Method in brief: (§1)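 Alluvial soil was flooded to 4 cm depth, weed seeds were sown mixed and 2.5-leaf rice seedlings were transplanted. On sowing day, the compound's emulsion, diluted in water to a set dose, was applied to the water surface. Plants grew at 25–30 °C and were scored 0–5 after three weeks.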
# velvetleaf [1] = assay: Test Example 5: herbicidal effect by foliage application, plastic box (Table 20, symbol M); format: in vivo, velvetleaf (Abutilon theophrasti); settings: foliage application, 320 g/ha, evaluated three weeks after application
# Method in brief: (§2)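 Plants sown in sterilized diluvial soil and grown 14 days in a greenhouse at 25° C to 30° C, then sprayed on the foliage with the compound's emulsion diluted in water to a predetermined herbicide amount. Injury to weeds and crops scored three weeks after application on a visual rating scale.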
# windgrass [2] = assay: Test Example 4: herbicidal effect by soil treatment (Table 19, symbol L); format: in vivo, windgrass (Apera spica-venti); settings: amount of applied herbicide 320 g/ha
# Method in brief: (§3)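 Seeds were sown in sterilized diluvial soil and covered with about 1.5 cm of soil. An emulsion formulation diluted with water to a predetermined herbicide amount was sprayed evenly onto the soil surface. Plants grew in a greenhouse at 25° C. to 30° C., and the effect was scored three weeks after application using criteria from an earlier test.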
# chickweed [3] = assay: Test Example 5: herbicidal effect by foliage application, plastic box (Table 20, symbol P); format: in vivo, common chickweed (Stellaria media); settings: foliage application, 320 g/ha, evaluated three weeks after application
# Method in brief: as §2
# redroot pigweed [4] = assay: Test Example 4: herbicidal effect by soil treatment (Table 19, symbol N); format: in vivo, redroot pigweed (Amaranthus retroflexus); settings: amount of applied herbicide 320 g/ha
# Method in brief: as §3
# persian speedwell [5] = assay: Test Example 4: herbicidal effect by soil treatment (Table 19, symbol R); format: in vivo, Persian speedwell (Veronica persica); settings: amount of applied herbicide 320 g/ha
# Method in brief: as §3
# southern crabgrass [6] = assay: Test Example 4: herbicidal effect by soil treatment (Table 19, symbol F); format: in vivo, southern crabgrass (Digitaria ciliaris); settings: amount of applied herbicide 320 g/ha
# Method in brief: as §3
# blackgrass [7] = assay: Test Example 5: herbicidal effect by foliage application, plastic box (Table 20, symbol J); format: in vivo, blackgrass (Alopecurus myosuroides); settings: foliage application, 320 g/ha, evaluated three weeks after application
# Method in brief: as §2
# lambsquarters [8] = assay: Test Example 5: herbicidal effect by foliage application, plastic box (Table 20, symbol O); format: in vivo, lambsquarters (Chenopodium album); settings: foliage application, 320 g/ha, evaluated three weeks after application
# Method in brief: as §2
# redroot pigweed [9] = assay: Test Example 5: herbicidal effect by foliage application, plastic box (Table 20, symbol N); format: in vivo, redroot pigweed (Amaranthus retroflexus); settings: foliage application, 320 g/ha, evaluated three weeks after application
# Method in brief: as §2
# false cleavers = assay: Test Example 4: herbicidal effect by soil treatment (Table 19, symbol Q); format: in vivo, false cleavers (Galium spurium); settings: amount of applied herbicide 320 g/ha
# Method in brief: as §3
# lambsquarters [10] = assay: Test Example 4: herbicidal effect by soil treatment (Table 19, symbol O); format: in vivo, lambsquarters (Chenopodium album); settings: amount of applied herbicide 320 g/ha
# Method in brief: as §3
# persian speedwell [11] = assay: Test Example 5: herbicidal effect by foliage application, plastic box (Table 20, symbol R); format: in vivo, Persian speedwell (Veronica persica); settings: foliage application, 320 g/ha, evaluated three weeks after application
# Method in brief: as §2
# southern crabgrass [12] = assay: Test Example 5: herbicidal effect by foliage application, plastic box (Table 20, symbol F); format: in vivo, southern crabgrass (Digitaria ciliaris); settings: foliage application, 320 g/ha, evaluated three weeks after application
# Method in brief: as §2
# late watergrass = assay: Test Example 1: herbicidal activity, application before weed generation under submerged conditions (Table 16, symbol A); format: in vivo, late watergrass (Echinochloa oryzicola); settings: 320 g/ha applied herbicide
# Method in brief: as §1
# barnyard grass [13] = assay: Test Example 4: herbicidal effect by soil treatment (Table 19, symbol H); format: in vivo, barnyard grass (Echinochloa crus-galli); settings: amount of applied herbicide 320 g/ha
# Method in brief: as §3
# velvetleaf [14] = assay: Test Example 4: herbicidal effect by soil treatment (Table 19, symbol M); format: in vivo, velvetleaf (Abutilon theophrasti); settings: amount of applied herbicide 320 g/ha
# Method in brief: as §3
# green foxtail [15] = assay: Test Example 5: herbicidal effect by foliage application, plastic box (Table 20, symbol G); format: in vivo, green foxtail (Setaria viridis); settings: foliage application, 320 g/ha, evaluated three weeks after application
# Method in brief: as §2
# wild oat [16] = assay: Test Example 5: herbicidal effect by foliage application, plastic box (Table 20, symbol I); format: in vivo, wild oat (Avena fatua); settings: foliage application, 320 g/ha, evaluated three weeks after application
# Method in brief: as §2
# barnyard grass [17] = assay: Test Example 5: herbicidal effect by foliage application, plastic box (Table 20, symbol H); format: in vivo, barnyard grass (Echinochloa crus-galli); settings: foliage application, 320 g/ha, evaluated three weeks after application
# Method in brief: as §2
# Chinese sprangletop = assay: Test Example 3: herbicidal effect by foliage application, Wagner pot (Table 18, symbol D); format: in vivo, chinese sprangletop (Leptochloa chinensis); settings: amount of applied herbicide 320 g/ha
# Method in brief: (§4)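 Plants were sown in alluvial soil held under 0.1–0.5 cm standing water and grown 14 days in a greenhouse at 25–30 °C. An emulsifiable formulation, water-diluted to the set dose, was then sprayed onto the foliage, and effects were scored three weeks later using previously defined criteria.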
# wild oat [18] = assay: Test Example 4: herbicidal effect by soil treatment (Table 19, symbol I); format: in vivo, wild oat (Avena fatua); settings: amount of applied herbicide 320 g/ha
# Method in brief: as §3
# barnyard grass [19] = assay: Test Example 3: herbicidal effect by foliage application, Wagner pot (Table 18, symbol H); format: in vivo, barnyard grass (Echinochloa crus-galli); settings: amount of applied herbicide 320 g/ha
# Method in brief: as §4
# windgrass [20] = assay: Test Example 5: herbicidal effect by foliage application, plastic box (Table 20, symbol L); format: in vivo, windgrass (Apera spica-venti); settings: foliage application, 320 g/ha, evaluated three weeks after application
# Method in brief: as §2
# green foxtail [21] = assay: Test Example 4: herbicidal effect by soil treatment (Table 19, symbol G); format: in vivo, green foxtail (Setaria viridis); settings: amount of applied herbicide 320 g/ha
# Method in brief: as §3
# rice flat sedge = assay: Test Example 3: herbicidal effect by foliage application, Wagner pot (Table 18, symbol E); format: in vivo, rice flat sedge (Cyperus iria); settings: amount of applied herbicide 320 g/ha
# Method in brief: as §4
# blackgrass [22] = assay: Test Example 4: herbicidal effect by soil treatment (Table 19, symbol J); format: in vivo, blackgrass (Alopecurus myosuroides); settings: amount of applied herbicide 320 g/ha
# Method in brief: as §3
# chickweed [23] = assay: Test Example 4: herbicidal effect by soil treatment (Table 19, symbol P); format: in vivo, common chickweed (Stellaria media); settings: amount of applied herbicide 320 g/ha
# Method in brief: as §3
# Italian ryegrass [24] = assay: Test Example 5: herbicidal effect by foliage application, plastic box (Table 20, symbol K); format: in vivo, Italian ryegrass (Lolium multiflorum); settings: foliage application, 320 g/ha, evaluated three weeks after application
# Method in brief: as §2
# Japanese bulrush = assay: Test Example 1: herbicidal activity, application before weed generation under submerged conditions (Table 16, symbol B); format: in vivo, Japanese bulrush (Schoenoplectus juncoides); settings: 320 g/ha applied herbicide
# Method in brief: as §1
# Italian ryegrass [25] = assay: Test Example 4: herbicidal effect by soil treatment (Table 19, symbol K); format: in vivo, Italian ryegrass (Lolium multiflorum); settings: amount of applied herbicide 320 g/ha
# Method in brief: as §3
structure (smiles),measurement,setting,value
COCC(=O)Nc1ccc2sc(-c3ccc(F)cc3OC)c(-c3c(O)c(C)nn(C)c3=O)c2c1 [2-179],Herbicidal effect on C: oval-leafed pondweed (grade 0-5),oval-leafed pondweed,0 (Herbicidal rate of 5% or less (almost no effect))
same,herbicidal effect on M: velvetleaf (criteria 0-5),velvetleaf [1],1 (Herbicidal rate of 5% or more and less than 20%)
same,"L: windgrass, herbicidal effect rating",windgrass [2],0 (Herbicidal rate of 5% or less (almost no effect))
same,herbicidal effect on P: chickweed (criteria 0-5),chickweed [3],5 (Herbicidal rate of 90% or more (almost completely withered))
same,"N: redroot pigweed, herbicidal effect rating",redroot pigweed [4],2 (Herbicidal rate of 20% or more and less than 40%)
same,"R: persian speedwell, herbicidal effect rating",persian speedwell [5],3 (Herbicidal rate of 40% or more and less than 70%)
same,"F: southern crabgrass, herbicidal effect rating",southern crabgrass [6],0 (Herbicidal rate of 5% or less (almost no effect))
same,herbicidal effect on J: blackgrass (criteria 0-5),blackgrass [7],0 (Herbicidal rate of 5% or less (almost no effect))
same,herbicidal effect on O: lambsquarters (criteria 0-5),lambsquarters [8],2 (Herbicidal rate of 20% or more and less than 40%)
same,herbicidal effect on N: redroot pigweed (criteria 0-5),redroot pigweed [9],3 (Herbicidal rate of 40% or more and less than 70%)
same,"Q: false cleavers, herbicidal effect rating",false cleavers,0 (Herbicidal rate of 5% or less (almost no effect))
same,"O: lambsquarters, herbicidal effect rating",lambsquarters [10],3 (Herbicidal rate of 40% or more and less than 70%)
same,herbicidal effect on R: persian speedwell (criteria 0-5),persian speedwell [11],3 (Herbicidal rate of 40% or more and less than 70%)
same,herbicidal effect on F: southern crabgrass (criteria 0-5),southern crabgrass [12],0 (Herbicidal rate of 5% or less (almost no effect))
same,Herbicidal effect on A: late watergrass (grade 0-5),late watergrass,3 (Herbicidal rate of 40% or more and less than 70%)
same,"H: barnyard grass, herbicidal effect rating",barnyard grass [13],0 (Herbicidal rate of 5% or less (almost no effect))
same,"M: velvetleaf, herbicidal effect rating",velvetleaf [14],0 (Herbicidal rate of 5% or less (almost no effect))
same,herbicidal effect on G: green foxtail (criteria 0-5),green foxtail [15],0 (Herbicidal rate of 5% or less (almost no effect))
same,herbicidal effect on I: wild oat (criteria 0-5),wild oat [16],0 (Herbicidal rate of 5% or less (almost no effect))
same,herbicidal effect on H: barnyard grass (criteria 0-5),barnyard grass [17],0 (Herbicidal rate of 5% or less (almost no effect))
same,herbicidal effect on D: Chinese sprangletop,Chinese sprangletop,2 (Herbicidal rate of 20% or more and less than 40%)
same,"I: wild oat, herbicidal effect rating",wild oat [18],0 (Herbicidal rate of 5% or less (almost no effect))
same,herbicidal effect on H: barnyard grass,barnyard grass [19],2 (Herbicidal rate of 20% or more and less than 40%)
same,herbicidal effect on L: windgrass (criteria 0-5),windgrass [20],0 (Herbicidal rate of 5% or less (almost no effect))
same,"G: green foxtail, herbicidal effect rating",green foxtail [21],0 (Herbicidal rate of 5% or less (almost no effect))
same,herbicidal effect on E: rice flat sedge,rice flat sedge,4 (Herbicidal rate of 70% or more and less than 90%)
same,"J: blackgrass, herbicidal effect rating",blackgrass [22],0 (Herbicidal rate of 5% or less (almost no effect))
same,"P: chickweed, herbicidal effect rating",chickweed [23],3 (Herbicidal rate of 40% or more and less than 70%)
same,herbicidal effect on K: Italian ryegrass (criteria 0-5),Italian ryegrass [24],0 (Herbicidal rate of 5% or less (almost no effect))
same,Herbicidal effect on B: Japanese bulrush (grade 0-5),Japanese bulrush,0 (Herbicidal rate of 5% or less (almost no effect))
same,"K: Italian ryegrass, herbicidal effect rating",Italian ryegrass [25],0 (Herbicidal rate of 5% or less (almost no effect))
